# In PMC12688159, “Chemosensory protein 3 is a brain host factor for the induction of enhanced-locomotory activity in the BmNPV-silkworm infection model” (PLOS Pathogens, 2025):
# Columns and labels:
# [1] = target: T1, BmCSP3 (chemosensory protein 3) (Bombyx mori, UniProt Q3LBA2); test: biochemical; design: 1-NPN fluorescence displacement from purified BmCSP3; EC50int interpolated, Ki by Cheng-Prusoff; settings: EC50int, 1-NPN displacement; read-out: EC50,int ± SE (μΜ)
# T1 construct: residues 19–109 of UniProt entry Q3LBA2
# T1 sequence (Q3LBA2 19-127): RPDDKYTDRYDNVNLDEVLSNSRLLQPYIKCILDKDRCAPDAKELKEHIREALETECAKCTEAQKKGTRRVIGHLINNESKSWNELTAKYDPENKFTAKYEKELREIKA
# Method: (§1) The dissociation constant (Kd) of the fluorescent probe 1-NPN (N-Phenyl-1-naphthylamine) was determined in solutions containing 4 μΜ BmCSP3 in 20 mM Tris-HCl pH 8.0, 100 mM NaCl by addition of 0 το 20 μM 1-NPN. To determine the ligands’ Ki, 1-NPN displacement was measured in solutions containing 4 μΜ BmCSP3, 10 μΜ 1-NPN and ligand concentrations ranged from 0-20 μΜ and 0–32 μΜ, for the tested neurotranmiters and lipids, respectively. Control samples containing the ligand and 1-NPN, but lacking protein, were run in parallel to determine background fluorescence, which was subtracted from the experimental data. All experiments were performed in technical triplicate. Given that the bottom values never reaches zero and varied among the different experiments, the ligand concentration that reduced the initial fluorescence by 50% (EC50int) was estimated from the displacement binding curves by interpolation, using the built-in interpolation function of GraphPad Prism.
# [2] = target: T1, BmCSP3 (chemosensory protein 3); test: biochemical; design: 1-NPN fluorescence displacement binding with purified BmCSP3; Ki by Cheng-Prusoff from interpolated EC50; settings: 4 uM BmCSP3, 10 uM 1-NPN, pH 8.0, 25 °C; read-out: Ki (μΜ)
# Method: as §1, with “triplicate. The determination of dissociation constants and the visualization of the binding curves was carried out using the non-linear regression analysis program GraphPad Prism 8 (www.graphpad.com). The Kd of 1-NPN for BmCSP3 was determined to be 5.8 μΜ by fitting the fluorescence data to a single-binding site saturation model described by the equation” for “triplicate.”, “Prism. Subsequently, the ligand’s dissociation constant (Ki) was determined using the Cheng-Prusoff equation: […]” for “Prism.”
# [3] = target: T1, BmCSP3 (chemosensory protein 3); test: direct fluorescence titration of the probe with purified protein, single-site saturation fit; assay type: binding
# [4] = target: T1, BmCSP3 (chemosensory protein 3); test: 1-NPN fluorescence displacement binding assay with purified protein
SMILES,EC50 [1] [µM],Ki [2] [µM],Kd [3] [µM],Ki ([4]; read-out: Ki) [µM],Ki [4] [µM]
NCCCC(N)C(=O)O (racemic) [DL-Ornithine],> 20,> 20,,,
"c1ccc(Nc2cccc3ccccc23)cc1 [1-NPN, N-Phenyl-1-naphthylamine]",,,5.8,,
"CC/C=C\C/C=C\C=C\[C@@H](O)CCCCCCCC(=O)O [9(S)-HOTrE, (10E,12Z,15Z)-9-hydroxyoctadeca-10,12,15-trienoic acid]",0.79 ± 0.1,,,0.29,
NCC(=O)O [Glycine],> 20,> 20,,,
O=C(O)Cc1cc(O)ccc1O [Homogentisic acid],6.76 ± 1.58,,,,2.5
NC(=O)CC[C@H](N)C(=O)O [L-glutamine],7.78 ± 1.48,,,2.8,
Nc1ccccc1C(=O)C[C@H](N)C(=O)O [L-kynurenine],0.2 ± 0.02,,,0.072,
NCCCC[C@H](N)C(=O)O [L-lysine],> 20,> 14,,,
CC(=O)NCCc1c[nH]c2ccc(O)cc12 [N-acetylserotonin],5.82 ± 1.13,,,2.13,
NCCc1c[nH]c2ccc(O)cc12 [Serotonin],4.81 ± 1.17,,,,1.8
NCCc1c[nH]c2ccccc12 [Tryptamine],0.03 ± 0.01,,,,0.011
